Values quoted from earlier work in US20050137163A1, “Modified hyaluronic acid for use in musculoskeletal tissue repair” (priority 2003, published 2005).

Conditions: investigated previously as an antimicrobial agent

Substance: benzalconium chloride [BzCl]
- concentration shown to be safe: up to 0.1 % weight
